“Also recorded” adds a separate entry of the source.
Experiments:
[1] = tested on: tumor-bearing KP^f/fC mice; test: tumor-bearing KP^f/fC mice in vivo (AZD-0284, JTE-151); set-up: species or system mouse
Experimental: Next, the impact of JTE-151 was tested on tumor-bearing KP^f/fC mice in vivo. FIG. 51 is a schematic of the experimental design. KP^f/fC mice were allowed to develop tumors, then the tumor-bearing mice received vehicle or JTE-151, followed by analysis of the tumors at the end of the experiments. Different doses of JTE-151, i.e., at 30 mg/kg, 90 mg/kg, and 120 mg/kg body weight, were tested.
FIGS. 53-56 show examples of individual experiments where tumor-bearing KP^f/fC mice was treated with either vehicle or 90 mg/kg JTE-151 for 3 weeks in regimens as specified in the figures. For example, in FIGS. 53 and 55, the mice received 90 mg/kg JTE-151 once daily for 3 weeks. In FIG. 54, the mice received 90 mg/kg JTE-151 once daily for 1 week, followed by twice daily for another 2 weeks. At the end of each experiment, tumors were analyzed for different parameters including tumor mass, cell number, EpCAM positivity, CD133 positivity, EpCAM/CD133 positivity, cellularity, and IL-17 level. […] It was not clear whether the initial tumor size of the non-responder mouse was unusually large due to variances between different mice.
Similarly, the anti-cancer effect of JTE-151 was tested on tumor-bearing KP^f/fC mice in vivo at a higher dose of 120 mg/kg (FIGS. 59-61 showing three individual experiments). For each experiment, one mouse was given vehicle treatment, and another mouse was given the JTE-151 regimen as specified in the figures. For example, in FIG. 59, the JTE-151 mouse received 120 mg/kg body weight of JTE-151 for 2 weeks and then 90 mg/kg JTE-151 for 1 week. In the first 1.5 weeks, JTE-151 was given once daily, and in the second 1.5 weeks, JTE-151 was given twice daily. As previously, at the end of each experiment, tumors were analyzed for different parameters including cell number, EpCAM positivity, EpCAM/CD133 positivity, and IL-17 level. In each of FIGS. 59-61, the horizontal axis of each graph represents the target (vehicle vs. JTE-151 mouse), and the vertical axis represents the specified measurement.

[2] = tested on: non-germline KRAS/p53 organoids; test: non-germline KRAS/p53 organoid assay; assay type: cell-based, mouse; settings: 3 μM, 6 μM, 9 μM JTE-151; 4 days
Experimental: First, pharmacologic blockade of RORγ using JTE-151 was tested on pancreatic cell organoids as described above. Pancreatic cancer cells derived from two genetically engineered mouse models (GEMMS) were used for the organoid studies (FIGS. 47, 48). […] Then, electroporation was used to promote incorporation of the DNA into the pancreatic cells.
About 4,000 organoids from each of the non-germline and germline mouse models were plated as single cells in multi-well plates, as described above, and treated with JTE-151 for 4 days (FIG. 48). Organoid number and size were analyzed after treatment. […] In the quantification, different doses of JTE-151 were plotted along the horizontal axis, and the volume of organoids was expressed as relative to control along the vertical axis. […] Organoid volume was then analyzed. Different doses of JTE-151 were plotted along the horizontal axis, and the vertical axis represents relative organoid volume to control.

[3] = tested on: primary patient-derived organoids; test: primary patient-derived organoids, SR2211; assay type: cell-based, human; settings: following SR2211 treatment
Experimental: Primary patient organoids were established and provided by Dr. Andrew Lowy. Briefly, patient-derived xenografts were digested for 1 hour at 37° C. in RPMI containing 2.5% FBS, 5 mg/ml Collagenase II, and 1.25 mg/ml Dispase II, then passaged through a […] mesh filter. Cells were plated at a density of 1.5×10^5 cells per 50 μl Matrigel. After domes were solidified, growth medium was added as follows: RPMI containing 50% Wnt3a conditioned media, 10% R-Spondinl-conditioned media, 2.5% FBS, 50 ng/ml EGF, 5 mg/ml Insulin, 12.5 ng/ml hydrocortisone, and 14 μM Rho Kinase Inhibitor. After establishment, organoids were passaged and maintained as previously described (Boj et al., 2015). Briefly, organoids were isolated using Cell Recovery Solution (Corning 354253), then dissociated into single cell suspensions with TrypLE Express (ThermoFisher 12604) supplemented with 25 μg/ml DNase I (Roche) and 14 μM Rho Kinase Inhibitor (Y-27632, Sigma). Cells were split 1:2 into 20 μl domes plated on pre-warmed 48 well plates. Domes were incubated at 37° C. for 5 min, then covered with human complete organoid feeding media (Boj et al., 2015) without Wnt3a-conditioned media. […] Organoids were grown in the presence of vehicle or SR2211 for 7 days, then imaged and quantified, n=3 independent wells plated per dose per treatment group. […] Organoids were counted and measured using ImageJ 1.51s software.

[4] = tested on: organoids derived from acinar tumors; test: acinar tumor organoids (Msi2-Cre^ER/LSL-Myc); assay type: cell-based, mouse
Excerpt: A new Msi2-Cre^ER mouse model of aggressive pancreatic cancer was created, in which Cre is driven off of the Msi2 promoter and can be conditionally triggered by tamoxifen delivery. This Msi2-Cre^ER driver can be crossed into mice bearing distinct mutations such as Ras (leading to myeloproliferative neoplasia), p53, or Myc. When the Msi2-Cre^ER driver was crossed into an LSL-MyC^T58A model developed by Dr. Robert Wechsler-Reya at SBP/Rady, La Jolla, Calif. (Mollaoglu et al., 2017) (FIG. 79), it produced multiple cancer types including small cell lung cancer, choroid plexus tumors, and early stage kidney tumors.

[5] = tested on: PDX1424, PDX1444, and FG cells; test: compilation of PDX or FG xenografts, AZD-0284; assay type: in vivo, human
Excerpt: FIG. 45 is a compilation of all data from mice bearing PDX or FG cancer xenographs, including PDX1424, PDX1444, and FG.

K562 cells = test: k562 colony assay in methylcellulose; assay type: cell-based, human
Excerpt: K562 is an aggressive human leukemia cell line generated from blast crisis chronic myeloid leukemia. […] Cells were allowed to grow over the course of 8 days before the numbers of formed colonies were counted. This was used to understand the functionality of k562 cells under different conditions. Cells treated with AZD-0284 formed fewer colonies and their morphology was smaller in comparison to the vehicle-treated cells.

[6] = 90 mg/kg JTE-151, 3 weeks, compilation (FIG. 57)
[7] = 120 mg/kg JTE-151 regimen, mice that responded
[8] = compilation of all data (FIG. 45)
[9] = especially at 90 mg/kg AZD-0284 (FIG. 44)

Cc1ccc(NC(=O)C[C@H](CCC(=O)O)c2noc([C@H]3C[C@@H](CC(C)(C)C)C3)c2C2CC2)c(Cl)c1 [JTE-151, (4S)-6-[(2-chloro-4-methylphenyl)amino]-4-{4-cyclopropyl-5-[cis-3-(2,2-dimethylpropyl)cyclobutyl]isoxazol-3-yl}-6-oxohexanoic acid]
EpCam+/CD133+ tumor stem cells ([1]; 30 mg/kg JTE-151 once daily for about 3 weeks (FIG. 52)): loss | mice that did not show a response ([1]; 90 mg/kg JTE-151 (FIG. 56)): 1 out of 5 | EpCam+/CD133+ tumor stem cells [1, 6]: loss | tumor mass [1, 6]: reduced | tumor mass ([1]; 90 mg/kg JTE-151, 3 weeks, individual experiments (FIGS. 53-55)): reduced | mice that responded to the drug ([1]; 120 mg/kg JTE-151 regimen (FIGS. 59-61)): At least two of the three mice | EpCam+ tumor epithelial cells [1, 7]: loss | EpCam+/CD133+ tumor stem cells [1, 7]: loss | EpCam+/CD133+ tumor stem cells ([1]; JTE-151 at either 30 mg/kg or 90 mg/kg, 3 weeks (FIG. 58)): loss | organoid growth [2]: visibly and significantly impaired; also recorded: inhibited

OC(c1ccc(-c2ccc(CN3CCN(Cc4ccncc4)CC3)cc2)c(F)c1)(C(F)(F)F)C(F)(F)F [SR2211]
reduction in total organoid volume [3]: ~300 fold | organoid growth ([4]; 3 μM or 6 μM SR2211): significantly reduced | sensitivity of organoids ([4]; acinar tumors): sensitive

CC(=O)N1Cc2cc(S(C)(=O)=O)ccc2[C@@H]1C(=O)Nc1ccc(C(O)(C(F)(F)F)C(F)(F)F)cc1 [AZD-0284]
EpCam+ tumor epithelial cells [5, 8]: decrease | EpCam+/CD133+ tumor stem cells [5, 8]: decrease | cell number [5, 8]: decrease | EpCam+ tumor epithelial cells [5, 9]: reduced | EpCam+/CD133+ tumor stem cells [5, 9]: reduced | number of colonies formed (K562 cells; 1 μM, 3 μM, 5 μM, 10 μM, and 15 μM AZD-0284, 8 days): significant reduction | colony morphology (K562 cells; in comparison to the vehicle-treated cells): smaller

From US20220202811A1, “TREATMENT FOR RETINOIC ACID RECEPTOR-RELATED ORPHAN RECEPTOR Ɣ (RORƔ)-DEPENDENT CANCERS” (The Regents of the University of California, priority 2019, published 2022)
